≈ marks a conversion by molar mass, not a printed value.
Details: buffer; pH 7.4; 200.0 µM

| solubility kinetic | Compound |
| --- | --- |
| > 49.6 µg/mL | O=C(NCC1CCCO1)c1cccc(NC(=O)c2cccs2)c1 (stereo unspecified) |
| > 48.2 µg/mL | CC(C)On1c(SCC(=O)N(C)C)nc2ccccc2c1=O |
| 44.6 µg/mL (≈ 148 µM) | CN(C)C(=O)COc1ccc2c3c(c(=O)oc2c1)CCCC3 |
| > 41.6 µg/mL | CC(C)c1cc(CN2CCOCC2)cc(C(C)C)c1O |
| 33.6 µg/mL (≈ 118 µM) | O=C(COc1ccc(F)cc1)N1CCCc2ccccc21 |
| 1.8 µg/mL (≈ 5.98 µM) | O=c1nc(-c2ccccc2)c2cc(Br)ccc2[nH]1 |
| > 48.3 µg/mL | O=C(Cc1ccc(Br)cc1)NCCCn1ccnc1 |
| > 40.4 µg/mL | COc1ccc(S(=O)(=O)N2CCCCC2C)cc1 (stereo unspecified) |
| < 0.2 µg/mL | CC(=O)Oc1ccc(-c2csc(Nc3cccc(C)n3)n2)cc1 |
| 42.3 µg/mL | CCN(CC)CCCNc1ncnc2ccccc12.Cl |
| > 45.8 µg/mL | CC(=O)Nc1c2c(nn1-c1ccc(C)cc1)CS(=O)(=O)C2 |
| > 58.9 µg/mL | CCOc1cc(C(=O)NC2CC(C)(C)NC(C)(C)C2)cc(OCC)c1OCC |
| 3.6 µg/mL (≈ 10.9 µM) | CC(=O)N1CCc2cc(S(=O)(=O)Nc3ccc(C)cc3)ccc21 |
| 26.9 µg/mL (≈ 98.6 µM) | N#Cc1ccc(COC(=O)c2cccnc2Cl)cc1 |
| > 49.7 µg/mL | CC(C)(C#N)NC(=O)C(=O)c1c(-c2ccccc2)cc2ccccn12 |
| 24.8 µg/mL (≈ 84.3 µM) | Cc1cccc2c1NC(=O)C21OCC(CO)([N+](=O)[O-])CO1 (stereo unspecified) |
| > 43.2 µg/mL | CCOC(=O)c1ccc2c(c1)N(CC#N)C(=O)C(C)(C)O2 |
| 24.4 µg/mL (≈ 88.3 µM) | CC(C)NC(=S)N1CCC(Cc2ccccc2)CC1 |
| > 66 µg/mL | O=C(COC(=O)c1cccnc1Cl)Nc1cccc(S(=O)(=O)N2CCOCC2)c1 |
| > 30.6 µg/mL | CC1=CSC2=NS(=O)(=O)CCN12 |
| 47.7 µg/mL (≈ 123 µM) | N#CCSc1nc2ccccc2c(=O)n1CCCC(=O)NCC1CCCO1 (stereo unspecified) |
| 33.1 µg/mL (≈ 146 µM) | Cc1cccc(C)c1NC(=O)c1cccnc1 |
| 51.3 µg/mL (≈ 130 µM) | CCC1CCCCN1Cc1c(O)ccc2c(=O)c(-c3ccccc3OC)coc12 (stereo unspecified) |

| solubility kinetic | Compound |
| --- | --- |
| 41.2 µg/mL (≈ 148 µM) | COc1ccccc1OCC(=O)Nc1ncc(C)s1 |
| > 33.8 µg/mL | CC(=O)NC(CC(=O)O)c1ccc(F)cc1 (stereo unspecified) |
| 4.6 µg/mL (≈ 13.4 µM) | Cc1cc(N2CCOCC2)nc2ccc(NC(=S)NC(C)C)cc12 |
| > 52.2 µg/mL | Cc1ccc(C(=O)NCCNC(=O)COc2ccccc2Cl)cn1 |
| 49.4 µg/mL (≈ 143 µM) | Fc1ccccc1NC(=S)Nc1ccc(CN2CCOCC2)cc1 |
| 5.3 µg/mL (≈ 15.1 µM) | Cc1ccc(NC(=O)c2ccco2)c(NC(=O)COc2ccccc2)c1 |
| 5.2 µg/mL (≈ 11.3 µM) | CN(Cc1cccc(Cl)c1Cl)C(=O)c1cc(S(=O)(=O)N2CCOCC2)ccc1F |
| > 43.1 µg/mL | Cc1onc(-c2ccccc2)c1C(=O)NN1CCOCC1 |
| 11 µg/mL (≈ 31.6 µM) | Cc1ccccc1N1CCN(Cc2nc(Cc3ccccc3)no2)CC1 |
| 3.1 µg/mL (≈ 8.28 µM) | CCOc1cc(C(=O)OCc2cc(=O)n3c(C)csc3n2)ccc1OC |
| 3.3 µg/mL (≈ 12.8 µM) | CC1CCC(C(C)C)C(=O)/C1=C/c1ccc(N)cc1 (stereo unspecified) |
| > 47 µg/mL | COc1ccccc1C(=O)C1CCCN(C(=O)c2ccco2)C1 (stereo unspecified) |
| 38.8 µg/mL (≈ 137 µM) | CC(=O)Nc1ccc(C(=O)OCCc2ccccc2)cc1 |
| > 36.9 µg/mL | Nc1nc(C23CC4CC(CC(C4)C2)C3)[nH]c(=O)n1 |
| > 51.8 µg/mL | CC(O)CNc1ccc([N+](=O)[O-])cc1S(=O)(=O)N1CCOCC1 (stereo unspecified) |
| > 39.8 µg/mL | CC(=O)Nc1ccc2c(c1)nc(C)n2-c1ccccc1 |
| 0.4 µg/mL (≈ 1.31 µM) | COc1ccc(C(=O)O/N=C(\N)c2ccc(Cl)cc2)cc1 |
| 39.8 µg/mL (≈ 122 µM) | COc1ccccc1N1CC=C(c2cccc([N+](=O)[O-])c2)NC1=O |
| 41.5 µg/mL (≈ 108 µM) | Cc1cc(N2CCOCC2)nc2ccc(NC(=S)N3CCCCC3C)cc12 (stereo unspecified) |
| 9.4 µg/mL (≈ 31.3 µM) | COC(OC)c1ccc(C#N)c(SCc2ccccc2)n1 |
| 24.6 µg/mL (≈ 101 µM) | CCC(C)c1ccc(NC(=O)c2ccco2)cc1 (stereo unspecified) |
| > 46.6 µg/mL | Cc1ccc(C(=O)Nc2ccc(N3CCN(C)CC3)nc2)cc1 |
| > 52.7 µg/mL | N#Cc1cnn2cc(CCN3CCOCC3)c(-c3ccc(F)cc3)nc12 |

| solubility kinetic | Compound |
| --- | --- |
| 8.5 µg/mL (≈ 35.7 µM) | c1ccc(-c2csc(-c3cccnc3)n2)cc1 |
| 2.2 µg/mL (≈ 6.31 µM) | Cc1onc(-c2ccccc2)c1-c1csc(COc2ccccc2)n1 |
| > 62.3 µg/mL | Cc1ccccc1C(=O)OCC(=O)Nc1cccc(S(=O)(=O)NC2=NCCC2)c1 |
| > 44.4 µg/mL | O=C(NCCCn1ccnc1)C(=O)c1c[nH]c2ccccc12 |
| 6.1 µg/mL (≈ 19.1 µM) | O=C(Cc1ccccc1)c1c[nH]c(C(=O)NCc2ccncc2)c1 |
| 30.2 µg/mL (≈ 142 µM) | FC(F)(F)c1ccccc1-n1ccnc1 |
| > 43.9 µg/mL | CC(C)c1ccc(NC(=S)NN2CCN(C)CC2)cc1 |
| 14 µg/mL (≈ 48.1 µM) | Cc1ccc(C(=O)OCC(=O)N2CCCCCC2)c(O)c1 |
| 21.4 µg/mL (≈ 80.7 µM) | O=c1oc2ccccc2nc1/C=C(\O)c1ccccc1 |
| 48.4 µg/mL (≈ 146 µM) | NC(=O)C1CCCN(CC(=O)N2CCN(c3ccccc3)CC2)C1 (stereo unspecified) |
| 1.1 µg/mL (≈ 3.27 µM) | CCOC(=O)c1csc(NC(=O)CCSc2ccccc2)n1 |
| > 42.5 µg/mL | O=C(NCCc1ccccc1)c1ccc2c(c1)OCCO2 |
| > 54.3 µg/mL | COc1cc2c(cc1OC)C(c1ccccc1Br)NC(=O)C2 (stereo unspecified) |
| 62.5 µg/mL (≈ 130 µM) | COc1ccc(S(=O)(=O)N2CCCCC2)cc1NS(=O)(=O)c1ccc(CNC(C)=O)cc1 |
| > 46.7 µg/mL | Cc1ccc(N2C(S)=C(C#N)C(=O)NC2c2ccco2)cc1 (stereo unspecified) |
| 23 µg/mL (≈ 101 µM) | O=C(Nc1cccnc1)OCc1ccccc1 |
| 46.4 µg/mL (≈ 145 µM) | CC(C)N(C(=O)CSc1nc2ccccc2c(=O)[nH]1)C(C)C |
| 41.9 µg/mL (≈ 144 µM) | O=C(O)c1ccc(NCCC2=CCCCC2)c([N+](=O)[O-])c1 |
| < 0.6 µg/mL | O=C1C2C3C=CC(CC3)C2C(=O)N1c1ccc(Cl)cc1 (stereo unspecified) |
| > 39.3 µg/mL | O=C(NCc1cccnc1)Nc1ccc(Cl)cc1 |
| > 39.3 µg/mL | Cc1c(C(=O)N2CCC(C)CC2)cccc1[N+](=O)[O-] |
| 36.2 µg/mL (≈ 117 µM) | Cc1ccc(NC(=O)CC2SCCNC2=O)cc1[N+](=O)[O-] (stereo unspecified) |
| 44.2 µg/mL (≈ 131 µM) | O=C(NC1CCCC1)C1CCN(S(=O)(=O)c2ccccc2)CC1 |

| solubility kinetic | Compound |
| --- | --- |
| > 45.5 µg/mL | CC(=O)C1C(c2ccc(F)cc2)c2c(noc2C)CC1(C)O (stereo unspecified) |
| > 51.9 µg/mL | Cc1c(Cl)c([N+](=O)[O-])nn1CC(=O)NCCCN1CCOCC1 |
| 26.3 µg/mL (≈ 128 µM) | O=C(Nc1ccccc1)C1CCOC1=O (stereo unspecified) |
| < 0.4 µg/mL | Cn1c(=NC(=O)COc2ccccc2)sc2cc(F)cc(F)c21 |
| 10.5 µg/mL (≈ 41.3 µM) | CC(C)C(=O)Nc1oc(-c2ccccc2)cc1C#N |
| 12.1 µg/mL (≈ 37.3 µM) | CCc1cccc(C)c1N1C(=O)CN(Cc2ccccc2)C1=S |
| > 44 µg/mL | N#Cc1ccc(S(=O)(=O)NC2CCCCNC2=O)cc1 (stereo unspecified) |
| 1.3 µg/mL (≈ 4.36 µM) | O=C(NCc1ccccc1)NCC12CC3CC(CC(C3)C1)C2 |
| 40.5 µg/mL (≈ 136 µM) | COC(=O)c1sccc1NS(=O)(=O)c1ccccc1 |
| 9.4 µg/mL (≈ 32.4 µM) | O=C(CC(=O)Nc1cccc(F)c1)Nc1cccc(F)c1 |
| > 35 µg/mL | CC1(C)CC(C(=O)Nc2ccccc2)C(=O)O1 (stereo unspecified) |
| > 24.5 µg/mL | Cl.O=C(O)C1=CCCNC1 |
| 32.1 µg/mL (≈ 106 µM) | O=CC1=C(N2CCOCC2)/C(=C/c2ccc(Cl)cc2)CC1 |
| > 44.8 µg/mL | CNC(=O)c1ccc(CNC(=O)OCc2ccccc2)cc1 |
| 5 µg/mL (≈ 13.8 µM) | O=C(Nc1cccc2ncccc12)c1cc(Br)ccc1Cl |
| 33.7 µg/mL (≈ 146 µM) | Cc1noc(/C=C/c2cccnc2)c1[N+](=O)[O-] |
| 27.6 µg/mL (≈ 72.2 µM) | O=C(CNC(=O)C1CCCCC1)OCC(=O)c1ccc(Br)cc1 |
| > 44.6 µg/mL | CC(C)(C)NC(=O)COC(=O)CCC(=O)c1cccs1 |
| 2.1 µg/mL (≈ 6.47 µM) | CCCCNc1ccc2c3c(cccc13)C(=O)N(CCCC)C2=O |
| > 54.9 µg/mL | C=CCN(CC(=O)Nc1cccnc1)S(=O)(=O)c1ccc(Cl)cc1 |
| > 44.3 µg/mL | Cc1c(NC(=O)C(C)C)cccc1-c1nc2ncccc2o1 |
| > 53.8 µg/mL | Cc1cccn2c(=O)nc(SCC(=O)NCc3ccc(F)cc3)nc12 |
| 0.6 µg/mL (≈ 1.88 µM) | Cc1ccc(NC(=O)c2cc(CC(C)C)nc3ccccc23)cc1 |

| solubility kinetic | Compound |
| --- | --- |
| > 51.1 µg/mL | O=C(COc1ccc(S(=O)(=O)N2CCOCC2)cc1)NC1CC1 |
| 1.7 µg/mL (≈ 4.82 µM) | CC(C)(C)NC(=O)N1CCN(c2nc3ccc(Cl)cc3s2)CC1 |
| > 42.3 µg/mL | Cc1noc(C)c1S(=O)(=O)Nc1cccc(CO)c1 |
| > 49.6 µg/mL | O=C(CSc1ccccc1)N1CCN(C(=O)c2ccco2)CC1 |
| > 52.5 µg/mL | CN(CC(O)COc1ccc2ccccc2c1)C1CCCCC1.Cl (stereo unspecified) |
| > 44 µg/mL | COc1cc(OC)cc(C(=O)OCC(=O)N2CCCC2)c1 |
| > 51.3 µg/mL | CC(C)[C@H](Nc1ccc(C(F)(F)F)cc1[N+](=O)[O-])C(=O)O.[Cl-] |
| > 42.5 µg/mL | Cc1cc(=O)[nH]c(SCC(=O)NCC2CCCO2)n1 (stereo unspecified) |
| > 38.6 µg/mL | Cc1ccccc1N1C(=O)C2C3CCC(O3)C2C1=O (stereo unspecified) |
| 8.4 µg/mL (≈ 19.7 µM) | CC(=O)Nc1sc(C)c(C)c1C(=O)OCC(=O)Nc1ccc(S(N)(=O)=O)cc1 |
| > 38.1 µg/mL | CCCC(C(=O)Nc1ccncc1)c1ccccc1 (stereo unspecified) |
| 6 µg/mL (≈ 16.6 µM) | O=C(CN1C(=O)c2ccccc2S1(=O)=O)Nc1ccc([N+](=O)[O-])cc1 |
| 6.7 µg/mL (≈ 20 µM) | OCCN(CCO)CC(O)COc1ccc(Br)cc1 (stereo unspecified) |
| 1 µg/mL (≈ 3.26 µM) | COc1ccc(CCC(=O)Nc2cnc3ccccc3c2)cc1 |
| 17.5 µg/mL (≈ 64.3 µM) | Cc1ccc(CCC(=O)Nc2ccc(N(C)C)cc2)o1 |
| 14.7 µg/mL (≈ 52.3 µM) | COc1cc(Br)c(Br)cc1N |
| 33.7 µg/mL (≈ 133 µM) | CCC(=O)c1ccc(SC(=O)N(C)C)cc1O |
| > 47.1 µg/mL | O=C(CCC(=O)Nc1ccc(F)cc1)N/N=C/c1cccnc1 |
| 43.8 µg/mL (≈ 144 µM) | O=C(CS(=O)(=O)c1ccccc1Cl)N1CCOCC1 |
| > 45.6 µg/mL | CC(CN1CCCC1)OC(=O)c1ccc(Cl)cc1.Cl (stereo unspecified) |
| 26 µg/mL (≈ 89.8 µM) | CCc1ccc(NC(=O)COC(=O)CC2CCCC2)cc1 |
| 1.7 µg/mL (≈ 5.42 µM) | CCC(=O)Nc1nc2ccccc2n1Cc1ccccc1Cl |
| > 31.1 µg/mL | O=C(O)/C=C/C(=O)Nc1ccc(O)cc1 |

| Compound | solubility kinetic |
| --- | --- |
| Cc1noc(C)c1CSCC(=O)Nc1ccc(C#N)c(Cl)c1 | > 50.4 µg/mL |
| CCNC(=O)NNC(=O)C1CC(c2cccnc2)=NO1 (stereo unspecified) | > 41.6 µg/mL |
| Cl.N=c1sccn1Cc1ccccc1F | > 36.7 µg/mL |
| Clc1ccc(CN2CCCCCC2)cc1.O=C(O)C(=O)O | 24.9 µg/mL |
| N#Cc1ccc(NC(=O)CN2C(=O)NC3(CCCC3)C2=O)cc1Cl | 46.1 µg/mL (≈ 133 µM) |
| COc1ccccc1C1C([N+](=O)[O-])=C(N)Oc2c1c(=O)oc1ccccc21 (stereo unspecified) | 2.2 µg/mL (≈ 6.01 µM) |

Source: PubChem BioAssay AID1996
